The subject of the test is EV71 virus strain Shenzhen/120F1/09. Briefly: EV71 in-vitro cytopathic effect (CPE) test. The class given is cell-based, RD cells of human rhabdomyoma. As to conditions: Enterovirus A, 72 h; RD cells, EV71 100 TCID50, 3 days, CCK8 readout; read-out: EC50 by EC71 CPE test, EV71. How it is done:
Test of EV71 In-Vitro Cytopathic Effect (CPE) To test the in-vitro antiviral activity and cytotoxicity of a compound to HFMD virus EV71 by means of cytopathic effect (CPE) test. […] Cell line: RD cells of human rhabdomyoma • 3. Cell culture media: DMEM medium added with 10% serum, Penicillin/Streptomycin and L-[…]×) • 4. […] Cell inoculation: digest off the RD cells from the attached state, then dilute them with culture medium to a density of 80000/ml and inoculate 100 μl into the micro wells the 96-well plate. • 2. Dilution of compound: • Step 1: prepare the dry powder of a compound to test into a 10 mM solution in DMSO. Then dilute the compound by three times to eight concentration points. Dilute the reference compounds with the same method. • Step 2: further dilute the diluted solution of the compound in DMSO with cell culture medium. Add 10 μl DMSO solution for each well into 240 μl culture medium. • 3. Add the diluted compound solution by 50 μl each well into the 96-well plate inoculated with cells (double holes, final concentration of DMSO is 1%). • 4. Dilution of virus: dilute EV71 virus solution by 10000 times to a concentration of 100 TCID50/50 μl/. Add the diluted virus solution by 50 μl each well into the 96-well plate. Prepare another 96-well plate to replace the virus with culture medium and similarly inoculate the cells. Add the compound to test the toxicity of compound on cells. • 5. Cultivate the 96-well plate 3 days at the conditions of 37° C. and 5% CO2. • 6. EC50 and CC50 tests: add the cellular activity test reagent CCK8 into the micro-wells by 20 μl/well. Use ELIASA to read the absorbancy at the wavelength of 450 nm and 630 nm. • 7.

Structures are written as SMILES.

On to `CCO/N=C/c1ccc(OCCCCCCN2CCN(c3ccnc(N)c3)S2(=O)=O)cc1` [Embodiment 25, (E)-4-((6-(5-(2-aminopyridin-4-yl)-1,1-dioxide-1,2,5-thiadiazolidine-2-yl)-hexyl)-oxy)-benzaldehyde-O-ethyl ketoxime], for which the EC50 (commonly the concentration needed to bring the measured effect to its halfway point) is under 50 nM.

As to `CCOc1noc2cc(OCCC(C)CCN3CCN(c4ccncc4)S3(=O)=O)ccc12` (stereo not shown) [Embodiment 15, 2-(5-((3-ethoxy-benzo[d]isoxazole-6-yl)-oxy)-3-methyl-pentyl)-5-(pyridin-4-yl)-1,2,5-thiadiazolidine-1,1-dioxide], the EC50 is under 50 nM.

As for `CCOc1noc2cc(OCCCCCN3CCN(c4ccnc(NC)c4)S3(=O)=O)ccc12` [Embodiment 18, 2-(5-((3-ethoxy-benzo[d]isoxazol-6)-oxo)-pentyl)-5-(2-(methylamino)-pyridine-4)-1,2,5-thiadiazoline-1,1-dioxide], the 50% effective concentration (EC50) is under 50 nM.

As to `CCn1nnc(-c2ccc(OCCCCCN3CCN(c4ccnc(N)c4)S3(=O)=O)cc2)n1` [Embodiment 27, 4-(5-(5-(4-(2-ethyl-tetrazol-5-yl)-phenoxy)-pentyl)-1,1-dioxide-1,2,5-thiadiazolidine-2-yl)-pyridin-2-amine], the EC50 is under 50 nM.

With `CCO/N=C1\CCc2cc(OCCCCCN3CCN(c4ccnc(NC)c4)S3(=O)=O)ccc21` [Embodiment 50, (E)-2-(5-((1-(ethoxy-imino)-2,3-dihydro-1H-inden-5-yl)-oxy)-pentyl)-5-(2-(methylamino)-pyridin-4-yl)-1,2-thiadiazolidine-1,1-dioxide], the EC50 is under 50 nM.

Consider `CCOc1noc2cc(OCCC(F)CCN3CCN(c4ccncc4)S3(=O)=O)ccc12` (stereo not shown) [Embodiment 72, 2-(5-((3-ethoxy-benzo[d]isoxazole-6-yl)-oxy)-3-fluoro-pentyl)-5-(pyridin-4-yl)-1,2,5-thiadiazolidine-1,1-dioxide], for which the EC50 is 50 to 100 nM.

`CCO/N=C/c1ccc(OCCCCCN2CCN(c3cc(N)ncn3)S2(=O)=O)cc1` [Embodiment 38, (E)-4-((5-(5-(6-amino-pyrimidin-4-yl)-1,1-dioxide-1,2,5-thiadiazolidine-2-yl)-pentyl)-oxy)-benzaldehyde-O-ethyl ketoxime]: the EC50 was under 50 nM.

These data come from US9988361B2, “Anti-enterovirus 71 thiadiazolidine derivative” (JIANGSU KANION PHARMACEUTICAL CO. LTD, priority 2014, dated 2018).
